These results are taken from patent publication US12180207B2 (ARRAY BIOPHARMA INC., priority 2018, dated 2024).

The structures appear in SMILES notation. pIC50: −log10 of the molar value.

Assay [1] has as its target phosphorylated FGFR3 (SEQ ID NO: 5, amino acids 449 to 759) (Homo sapiens (Human), UniProt P22607). As to the kind of experiment: FGFR enzyme binding assay (HTRF tracer displacement), FGFR3. The following applies: 5 nM phosphorylated FGFR3, average of multiple determinations if made. A digest of the protocol: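 Compounds were tested for displacement of a tracer from human FGFR kinase in a time-resolved FRET binding format. After 60 minutes at 22° C, signal was read at two wavelengths and converted to percent of control, normalised between untreated wells and 1 μM reference inhibitor.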
In general terms: In TR-FRET formats the signal depends on donor and acceptor labels being close together.

The target in assay [2] is recombinant human FGFR3 (amino acids R397-T806) (Homo sapiens (Human), UniProt P22607). The experiment in a line: FGFR3 enzyme activity assay (LanthaScreen TR-FRET). In kind it is biochemical. The following applies: 25 μM ATP, 10 min incubation at 22° C., average of multiple determinations if made, read-out: FGFR3 Enz FRET IC50. A digest of the protocol: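 GST-HIS6-tagged human FGFR3 (R397-T806) was reacted with 100 nM Alexa Fluor 647-Poly-GT substrate and 25 μM ATP plus compound in HEPES/MgCl2/Triton buffer, pH 7.5, 2% DMSO, for 10 min at 22 °C.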

In assay [3] the target is FGFR3 (SEQ ID NO: 5, amino acids 449-759) (Homo sapiens (Human), UniProt P22607). As to the kind of experiment: LC/MS FGFR3 kobs assay (covalent protein modification). In kind it is binding. The settings on record: 500 nM FGFR3, 3 μM compound. A digest of the protocol: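 The observed rate constant kobs comes from an exponential decay fit of percent unmodified kinase over time. Covalent modification was quantified by Q-TOF LC/MS of formic acid-quenched samples, normalized against DMSO controls.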

Assay [4] deals with recombinant human FGFR1 catalytic domain (amino acids 308-731) (Homo sapiens (Human), UniProt P11362). The experiment in a line: FGFR1 enzyme activity assay (LanthaScreen TR-FRET). In kind it is biochemical. The settings on record: 20 min incubation at 22° C., average of multiple determinations if made, read-out: FGFR1 Enz FRET IC50. Summed up: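 His-tagged FGFR1 kinase domain with 100 nM Alexa Fluor 647-poly-GT peptide and ATP in pH 7.5 HEPES/MgCl2 buffer with 2% DMSO, 20 min at 22 °C. Quenched with EDTA plus 2 nM Eu-PY20 antibody and read after 60 min. IC50 comes from a 4-parameter fit of percent of control.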
Chain of recombinant human FGFR1 catalytic domain (amino acids 308-731) (P11362 other isoform, or with tags, fused parts or gaps): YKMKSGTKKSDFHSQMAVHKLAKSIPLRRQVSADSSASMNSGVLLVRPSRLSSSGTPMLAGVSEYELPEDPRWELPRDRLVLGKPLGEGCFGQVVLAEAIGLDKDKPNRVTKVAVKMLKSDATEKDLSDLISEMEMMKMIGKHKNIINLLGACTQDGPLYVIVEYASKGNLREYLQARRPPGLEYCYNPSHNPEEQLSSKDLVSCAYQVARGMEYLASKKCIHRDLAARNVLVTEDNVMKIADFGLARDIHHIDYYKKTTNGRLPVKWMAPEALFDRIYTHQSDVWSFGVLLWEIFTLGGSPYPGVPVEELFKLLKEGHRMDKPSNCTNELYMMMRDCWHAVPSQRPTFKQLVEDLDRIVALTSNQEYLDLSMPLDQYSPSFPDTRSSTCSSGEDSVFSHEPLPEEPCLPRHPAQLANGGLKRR

Chain of phosphorylated FGFR3 (SEQ ID NO: 5, amino acids 449 to 759) (P22607 449-759): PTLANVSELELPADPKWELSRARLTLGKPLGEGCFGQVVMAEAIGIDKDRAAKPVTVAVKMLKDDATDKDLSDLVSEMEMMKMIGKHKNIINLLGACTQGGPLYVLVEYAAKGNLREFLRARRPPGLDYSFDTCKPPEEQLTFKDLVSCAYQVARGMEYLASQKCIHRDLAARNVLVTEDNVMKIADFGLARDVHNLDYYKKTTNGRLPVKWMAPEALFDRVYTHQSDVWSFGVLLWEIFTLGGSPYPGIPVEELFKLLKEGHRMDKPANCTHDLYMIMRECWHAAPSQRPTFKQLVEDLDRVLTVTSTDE
Chain of FGFR3 (SEQ ID NO: 5, amino acids 449-759) (P22607 449-759): as above
Chain of recombinant human FGFR3 (amino acids R397-T806) (P22607 397-806): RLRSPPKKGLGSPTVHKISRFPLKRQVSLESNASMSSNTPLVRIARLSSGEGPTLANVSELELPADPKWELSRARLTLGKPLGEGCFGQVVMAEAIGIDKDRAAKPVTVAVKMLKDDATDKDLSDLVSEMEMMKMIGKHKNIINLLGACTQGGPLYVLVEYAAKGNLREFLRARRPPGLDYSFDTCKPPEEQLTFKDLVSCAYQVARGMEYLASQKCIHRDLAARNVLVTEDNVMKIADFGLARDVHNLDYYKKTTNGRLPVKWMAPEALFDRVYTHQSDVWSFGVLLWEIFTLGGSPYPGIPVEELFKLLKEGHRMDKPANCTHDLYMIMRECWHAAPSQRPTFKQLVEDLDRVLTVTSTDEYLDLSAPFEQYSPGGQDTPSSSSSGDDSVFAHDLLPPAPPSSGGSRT

One may read the pIC50 as the IC50 on a negative log10 scale, so that one unit is a factor of ten. Turning to `C=CC(=O)N1CC(C(=O)N2CC3CC(C2)N3c2ccc(-c3cc(OC)c4c(C#N)cnn4c3)cn2)C1` [Example 105, 6-(6-(3-(1-acryloylazetidine-3-carbonyl)-3,6-diazabicyclo[3.1.1]heptan-6-yl)pyridin-3-yl)-4-methoxypyrazolo[1,5-a]pyridine-3-carbonitrile], the pIC50 in assay [1] was 7.01; in assay [2], 6.90; in assay [4] it was 6.71. In addition, in assay [3], the “FGFR3 Enz kobs” value is 0.00147 min⁻¹.

On to `COc1cc(-c2cnn(C3CCN(C(=O)C4CN(C(=O)/C=C/CN5CC[C@@H](F)C5)C4)CC3)c2)cn2ncc(C#N)c12` [Example 183, (R,E)-6-(1-(1-(1-(4-(3-fluoropyrrolidin-1-yl)but-2-enoyl)azetidine-3-carbonyl)piperidin-4-yl)-1H-pyrazol-4-yl)-4-methoxypyrazolo[1,5-a]pyridine-3-carbonitrile], for which the pIC50 in assay [1] was 8.40; in assay [2], 8.30; in assay [4] it was 7.80. The “FGFR3 Enz kobs” value in assay [3] turned out to be 0.02414 min⁻¹.

As for `C=CC(=O)N1CC(C(=O)N2CCC(n3cc(-c4cc(OC)c5c(Cl)cnn5c4)cn3)CC2)C1` [Example 122, 1-(3-(4-(4-(3-chloro-4-methoxypyrazolo[1,5-a]pyridin-6-yl)-1H-pyrazol-1-yl)piperidine-1-carbonyl)azetidin-1-yl)prop-2-en-1-one], the pIC50 in assay [1] is 8.15; in assay [2], 8.05; in assay [4], 7.55. In addition, the “FGFR3 Enz kobs” value in assay [3] came out at 0.01396 min⁻¹.

`COc1cc(-c2cnn(C3CCN(C(=O)C4CN(C(=O)/C=C/CN(C)C)C4)CC3)c2C)cn2ncc(C#N)c12` [Example 152, (E)-6-(1-(1-(1-(4-(dimethylamino)but-2-enoyl)azetidine-3-carbonyl)piperidin-4-yl)-5-methyl-1H-pyrazol-4-yl)-4-methoxypyrazolo [1,5-a]pyridine-3-carbonitrile]: the pIC50 in assay [1] is 8.15; in assay [2], 7.80; in assay [4] it was 7.00. The “FGFR3 Enz kobs” value in assay [3] amounted to 0.03526 min⁻¹.

As to `COc1cc(-c2nn(C3CCN(C(=O)C4(F)CN(C(=O)/C=C/CN(C)C)C4)CC3)nc2C)cn2ncc(C#N)c12` [Example 163, (E)-6-(2-(1-(1-(4-(dimethylamino)but-2-enoyl)-3-fluoroazetidine-3-carbonyl)piperidin-4-yl)-5-methyl-2H-1,2,3-triazol-4-yl)-4-methoxypyrazolo [1,5-a]pyridine-3-carbonitrile], the pIC50 in assay [1] was 7.47; in assay [2], 6.64; in assay [4], 5.66. Further, the “FGFR3 Enz kobs” value in assay [3] worked out at 0.03573 min⁻¹.

As to `C=CC(=O)N1CC(C(=O)N2CCN(c3ccc(-c4cc(OC)c5c(C#N)cnn5c4)nn3)CC2)C1` [Example 115, 6-(6-(4-(1-acryloylazetidine-3-carbonyl)piperazin-1-yl)pyridazin-3-yl)-4-methoxypyrazolo[1,5-a]pyridine-3-carbonitrile], the pIC50 in assay [1] is 7.96; in assay [2] it was 7.74; in assay [4] it was 7.07. In addition, the “FGFR3 Enz kobs” value in assay [3] was 0.01937 min⁻¹.

On to `C=CC(=O)N1CC(C)(C(=O)N2CCC(n3cc(-c4cc(OC)c5c(Cl)cnn5c4)cn3)CC2)C1` [Example 123, 1-(3-(4-(4-(3-chloro-4-methoxypyrazolo[1,5-a]pyridin-6-yl)-1H-pyrazol-1-yl)piperidine-1-carbonyl)-3-methylazetidin-1-yl)prop-2-en-1-one], for which the pIC50 is 7.66 in assay [1], 8.10 in assay [2] and 7.40 in assay [4]. In addition, the “FGFR3 Enz kobs” value in assay [3] stood at 0.01169 min⁻¹.

On to `C=CC(=O)N1CC(OC)(C(=O)N2CCC(n3nc(C)c(-c4cc(OC)c5c(C#N)cnn5c4)c3C)CC2)C1` [Example 95, 6-(1-(1-(1-acryloyl-3-methoxyazetidine-3-carbonyl)piperidin-4-yl)-3,5-dimethyl-1H-pyrazol-4-yl)-4-methoxypyrazolo[1,5-a]pyridine-3-carbonitrile], for which the pIC50 in assay [1] was 7.59; in assay [2] it was 6.99; in assay [4], 6.07. Also, the “FGFR3 Enz kobs” value in assay [3] was found to be 0.04202 min⁻¹.

In the case of `C=CC(=O)N1CC(F)(C(=O)N2CCN(c3cc(C)c(-c4cc(OC)c5c(C#N)cnn5c4)cn3)CC2)C1` [Example 114, 6-(6-(4-(1-acryloyl-3-fluoroazetidine-3-carbonyl)piperazin-1-yl)-4-methylpyridin-3-yl)-4-methoxypyrazolo[1,5-a]pyridine-3-carbonitrile], the pIC50 in assay [1] is 7.20; in assay [2], 6.59; in assay [4] it was 6.51. Moreover, the “FGFR3 Enz kobs” value in assay [3] came to 0.03264 min⁻¹.

As for `C=CC(=O)N1CC(C(=O)N2CCN(c3ccc(-c4cc(OC)c5c(C#N)cnn5c4)cc3)CC2)C1` [Example 100, 6-(4-(4-(1-acryloylazetidine-3-carbonyl)piperazin-1-yl)phenyl)-4-methoxypyrazolo[1,5-a]pyridine-3-carbonitrile], the pIC50 in assay [1] was 8.30; in assay [2] it was 8.70; in assay [4] it was 8.05. Also, in assay [3], the “FGFR3 Enz kobs” value stood at 0.02324 min⁻¹.

On to `COc1cc(-c2cnn(C3CCN(C(=O)C4CN(C(=O)/C=C/CN5CCCCC5)C4)CC3)c2)cn2ncc(C#N)c12` [Example 145, (E)-4-methoxy-6-(1-(1-(1-(4-(piperidin-1-yl)but-2-enoyl)azetidine-3-carbonyl)piperidin-4-yl)-1H-pyrazol-4-yl)pyrazolo[1,5-a]pyridine-3-carbonitrile], for which the figures for the pIC50 in assay [1], in assay [2] and in assay [4] were 8.40, 8.52 and 8.40, respectively. The “FGFR3 Enz kobs” value in assay [3] was 0.01811 min⁻¹.

For the compound `COc1cc(-c2cnn(C3CCN(C(=O)C4CN(C(=O)/C=C/CN5CCOCC5)C4)CC3)c2)cn2ncc(C#N)c12` [Example 184, (E)-4-methoxy-6-(1-(1-(1-(4-morpholinobut-2-enoyl)azetidine-3-carbonyl)piperidin-4-yl)-1H-pyrazol-4-yl)pyrazolo[1,5-a]pyridine-3-carbonitrile], the pIC50 was 8.22 in assay [1], 8.22 in assay [2] and 7.82 in assay [4]. Further, the “FGFR3 Enz kobs” value in assay [3] amounted to 0.00475 min⁻¹.

Take `C#CC(=O)N1CC(C(=O)N2CCC(n3cc(-c4cc(OC)c5c(C#N)cnn5c4)cn3)CC2)C1` [Example 138, 4-methoxy-6-(1-(1-(1-propioloylazetidine-3-carbonyl)piperidin-4-yl)-1H-pyrazol-4-yl)pyrazolo[1,5-a]pyridine-3-carbonitrile]: the pIC50 was 8.70 in assay [1], 8.70 in assay [2] and 8.15 in assay [4]. Also, the “FGFR3 Enz kobs” value in assay [3] turned out to be 0.3446 min⁻¹.

On to `CCc1c(-c2cc(OC)c3c(C#N)cnn3c2)cnn1C1CCN(C(=O)C2(F)CN(C(=O)/C=C/CN(C)C)C2)CC1` [Example 162, (E)-6-(1-(1-(1-(4-(dimethylamino)but-2-enoyl)-3-fluoroazetidine-3-carbonyl)piperidin-4-yl)-5-ethyl-1H-pyrazol-4-yl)-4-methoxypyrazolo [1,5-a]pyridine-3-carbonitrile], for which the pIC50 in assay [1] is 7.32; in assay [2], 7.00; in assay [4], 6.51. Moreover, the “FGFR3 Enz kobs” value in assay [3] was 0.07862 min⁻¹.

For `COc1cc(-c2cnc(N3CCN(C(=O)C4(F)CN(C(=O)/C=C/CN(C)C)C4)CC3)cc2C)cn2ncc(C#N)c12` [Example 169, (E)-6-(6-(4-(1-(4-(dimethylamino)but-2-enoyl)-3-fluoroazetidine-3-carbonyl)piperazin-1-yl) -4-methylpyridin-3-yl)-4-methoxypyrazolo [1,5-a]pyridine-3-carbonitrile], the pIC50 was 7.31 in assay [1], 7.08 in assay [2] and 6.81 in assay [4]. Moreover, the “FGFR3 Enz kobs” value in assay [3] turned out to be 0.08 min⁻¹.

In the case of `C=CC(=O)N1CC(OC)(C(=O)N2CCC(n3cc(-c4cc(OC)c5c(Cl)cnn5c4)cn3)CC2)C1` [Example 124, 1-(3-(4-(4-(3-chloro-4-methoxypyrazolo[1,5-a]pyridin-6-yl)-1H-pyrazol-1-yl)piperidine-1-carbonyl)-3-methoxyazetidin-1-yl)prop-2-en-1-one], the values for the pIC50 in assay [1], in assay [2] and in assay [4] were 8.05, 8.10 and 7.42, respectively. In assay [3], the “FGFR3 Enz kobs” value was 0.02484 min⁻¹.

For the compound `C=CC(=O)N1CC(F)(C(=O)N2CCC(n3ncc(-c4cc(OC)c5c(C#N)cnn5c4)c3CC)CC2)C1` [Example 96, 6-(1-(1-(1-acryloyl-3-fluoroazetidine-3-carbonyl)piperidin-4-yl)-5-ethyl-1H-pyrazol-4-yl)-4-methoxypyrazolo[1,5-a]pyridine-3-carbonitrile], the pIC50 in assay [1] was 7.14; in assay [2] it was 6.54; in assay [4], 6.42. Further, the “FGFR3 Enz kobs” value in assay [3] is 0.03335 min⁻¹.
